Assay results reported in US10167262B2, “Herbicidal substituted 3-arylpyrazoles” (FMC CORPORATION, priority 2014, dated 2019).

How the values were obtained:
Format in all cases: in vivo
[1] = test system: pigweed (Amaranthus retroflexus); assay: Test A pre-/postemergence greenhouse herbicide test, visual injury rating 0-100; settings: 1000 g ai/ha
In short: (§1)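 Ratings are visual, 0 to 100 relative to untreated plants, taken approximately 10 days post-treatment in the greenhouse. Both preemergence soil and postemergence foliar routes were used with surfactant-containing non-phytotoxic solvent formulations.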

[2] = test system: giant foxtail (Setaria faberii); assay: as above; settings: 1000 g ai/ha
In short: as §1

[3] = test system: velvetleaf (Abutilon theophrasti); assay: as above; settings: 1000 g ai/ha
In short: as §1

[4] = test system: large (Lg) crabgrass (Digitaria sanguinalis); assay: as above; settings: 1000 g ai/ha
In short: as §1

[5] = test system: wheat (Triticum aestivum); assay: as above; settings: 1000 g ai/ha
In short: as §1

corn (Zea mays) [6] = assay: as above; settings: 1000 g ai/ha
In short: as §1

[7] = test system: morningglory (Ipomoea spp.); assay: as above; settings: 1000 g ai/ha
In short: as §1

[8] = test system: barnyardgrass (Echinochloa crus-galli); assay: as above; settings: 1000 g ai/ha
In short: as §1

[9] = test system: pigweed (Amaranthus retroflexus); assay: Test C pre-/postemergence greenhouse test, plant response rating 0-100; settings: Postemergence
In short: (§2)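 Scores run from 0, no effect, to 100, complete control, assigned by eye after treated plants and controls spent 13 to 15 days in a greenhouse. Soil-applied treatment went onto freshly sown seed in loam and sand; foliar treatment hit seedlings at the 1- to 4-leaf stage.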

[10] = test system: velvetleaf (Abutilon theophrasti); assay: as above; settings: Postemergence
In short: as §2

[11] = test system: ragweed (common ragweed, Ambrosia elatior); assay: as above; settings: Postemergence
In short: as §2

[12] = test system: Italian ryegrass (Lolium multiflorum); assay: as above; settings: Postemergence
In short: as §2

corn (Zea mays) [13] = assay: as above; settings: Postemergence
In short: as §2

Q: How did the “Plant response rating (0 to 100 scale), Pigweed” value ([1]; Postemergence) turn out when `Cn1cc(C(=NN2CCCC2)c2ccccc2)c(-c2cc(Cl)c(Cl)c(Cl)c2)n1` [Compound 25] was run?
A: The value was 90.

Q: What about the “Plant response rating (0 to 100 scale), Pigweed” value ([1]; Preemergence) of the same compound?
A: The value was 90.

Q: What about the “Plant response rating (0 to 100 scale), Foxtail, Giant” value ([2]; Postemergence) of the same compound?
A: Its value is 0.

Q: And the “Plant response rating (0 to 100 scale), Foxtail, Giant” value ([2]; Preemergence)?
A: The value was 0.

Q: And the “Plant response rating (0 to 100 scale), Velvetleaf” value ([3]; Postemergence)?
A: Its value is 80.

Q: And the “Plant response rating (0 to 100 scale), Velvetleaf” value ([3]; Preemergence)?
A: The value was 20.

Q: And the “Plant response rating (0 to 100 scale), Crabgrass, Large” value ([4]; Postemergence)?
A: The value was 0.

Q: And the “Plant response rating (0 to 100 scale), Crabgrass, Large” value ([4]; Preemergence)?
A: The value was 0.

Q: And the “Plant response rating (0 to 100 scale), Wheat” value ([5]; Postemergence)?
A: Its value is 0.

Q: And the “Plant response rating (0 to 100 scale), Wheat” value ([5]; Preemergence)?
A: The value was 0.

Q: What about the “Plant response rating (0 to 100 scale), Corn” value (corn (Zea mays) [6]; Postemergence) of the same compound?
A: Its value is 0.

Q: And the “Plant response rating (0 to 100 scale), Corn” value (corn (Zea mays) [6]; Preemergence)?
A: The value was 0.

Q: And the “Plant response rating (0 to 100 scale), Morningglory” value ([7]; Postemergence)?
A: The value was 0.

Q: And the “Plant response rating (0 to 100 scale), Morningglory” value ([7]; Preemergence)?
A: The value was 0.

Q: And the “Plant response rating (0 to 100 scale), Barnyardgrass” value ([8]; Postemergence)?
A: Its value is 0.

Q: What about the “Plant response rating (0 to 100 scale), Barnyardgrass” value ([8]; Preemergence) of the same compound?
A: The value was 0.

Q: What about the “Plant response rating (0 to 100), Pigweed” value ([9]; 62 g ai/ha) of the same compound?
A: The value was 80.

Q: What about the “Plant response rating (0 to 100), Pigweed” value ([9]; 125 g ai/ha) of the same compound?
A: The value was 98.

Q: And the “Plant response rating, Pigweed” value ([9]; 250 g ai/ha, scale 0 to 100)?
A: Its value is 100.

Q: And the “Plant response rating (0 to 100), Velvetleaf” value ([10]; 62 g ai/ha)?
A: Its value is 55.

Q: What about the “Plant response rating (0 to 100), Velvetleaf” value ([10]; 125 g ai/ha) of the same compound?
A: The value was 65.

Q: What about the “Plant response rating, Velvetleaf” value ([10]; 250 g ai/ha, scale 0 to 100) of the same compound?
A: Its value is 70.

Q: And the “Plant response rating (0 to 100), Ragweed” value ([11]; 62 g ai/ha)?
A: Its value is 0.

Q: And the “Plant response rating (0 to 100), Ragweed” value ([11]; 125 g ai/ha)?
A: Its value is 0.

Q: What about the “Plant response rating, Ragweed” value ([11]; 250 g ai/ha, scale 0 to 100) of the same compound?
A: Its value is 0.

Q: What about the “Plant response rating (0 to 100), Ryegrass, Italian” value ([12]; 62 g ai/ha) of the same compound?
A: The value was 0.

Q: What about the “Plant response rating (0 to 100), Ryegrass, Italian” value ([12]; 125 g ai/ha) of the same compound?
A: Its value is 0.

Q: And the “Plant response rating, Ryegrass, Italian” value ([12]; 250 g ai/ha, scale 0 to 100)?
A: The value was 5.

Q: And the “Plant response rating (0 to 100), Corn” value (corn (Zea mays) [13]; 31 g ai/ha)?
A: The value was 0.

Q: What about the “Plant response rating (0 to 100), Corn” value (corn (Zea mays) [13]; 62 g ai/ha) of the same compound?
A: Its value is 0.

Q: And the “Plant response rating (0 to 100), Corn” value (corn (Zea mays) [13]; 125 g ai/ha)?
A: The value was 0.

Q: What about the “Plant response rating, Corn” value (corn (Zea mays) [13]; 250 g ai/ha, scale 0 to 100) of the same compound?
A: Its value is 0.
